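How tested: cells in 96-well plates exposed to compound for 48 hours at five concentrations. At the GI50, growth is halved.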 Calls of active or inactive are those of the source. Cut-off read from the data, not from the text of the source: active = GI50 up to about 1.1 µM and inactive = higher.
How the values were obtained:
Assay in all cases: inhibition of tumour cell growth, NCI panel, 48 h
RPMI-8226 = tested on: RPMI-8226
COLO 205 = tested on: COLO 205
MDA-N = tested on: MDA-N
HOP-62 = tested on: HOP-62
HL-60 = tested on: HL-60
SN12C = tested on: SN12C
SF-295 = tested on: SF-295
SK-MEL-28 = tested on: SK-MEL-28
MCF7 = tested on: MCF7
NCI-H522 = tested on: NCI-H522
SK-MEL-2 = tested on: SK-MEL-2
UACC-257 = tested on: UACC-257
TK-10 = tested on: TK-10
UACC-62 = tested on: UACC-62
HT-29 = tested on: HT-29
NCI-H23 = tested on: NCI-H23
OVCAR-5 = tested on: OVCAR-5
MDA-MB-435 = tested on: MDA-MB-435
ACHN = tested on: ACHN
Malme-3M = tested on: Malme-3M
A549 = tested on: A549
BT-549 = tested on: BT-549
SNB-75 = tested on: SNB-75
UO-31 = tested on: UO-31
MDA-MB-231 = tested on: MDA-MB-231
PC-3 = tested on: PC-3
SF-268 = tested on: SF-268
NCI-H460 = tested on: NCI-H460
U-251 = tested on: U-251
SK-MEL-5 = tested on: SK-MEL-5
HCC 2998 = tested on: HCC 2998
T47D = tested on: T47D
SW-620 = tested on: SW-620
NCI/ADR-RES = tested on: NCI/ADR-RES
Hs-578T = tested on: Hs-578T
786-0 = tested on: 786-0
HCT-116 = tested on: HCT-116
HCT-15 = tested on: HCT-15
CAKI-1 = tested on: CAKI-1
SNB-19 = tested on: SNB-19
EKVX = tested on: EKVX
DU-145 = tested on: DU-145
NCI-H226 = tested on: NCI-H226
SK-OV-3 = tested on: SK-OV-3
IGROV-1 = tested on: IGROV-1
LOX IMVI = tested on: LOX IMVI
MOLT-4 = tested on: MOLT-4
KM12 = tested on: KM12
HOP-92 = tested on: HOP-92
OVCAR-3 = tested on: OVCAR-3
CCRF-CEM = tested on: CCRF-CEM
SR = tested on: SR
OVCAR-8 = tested on: OVCAR-8
OVCAR-4 = tested on: OVCAR-4
K562 = tested on: K562
SF-539 = tested on: SF-539
RXF 393 = tested on: RXF 393
A498 = tested on: A498
M14 = tested on: M14

With `CC(C)=CC[C@]12CCN[C@H]1N(S(=O)(=O)c1ccccc1)c1ccccc12` the GI50 (RPMI-8226) was 18.3 µM (inactive), the GI50 (COLO 205) was 15.1 µM (inactive) and the GI50 (MDA-N) was 15.2 µM (inactive). For the same molecule, the GI50 (HOP-62) was 15.3 µM (inactive), the GI50 (HL-60) was 17.8 µM (inactive) and the GI50 (SN12C) was 13.6 µM (inactive). The GI50 (SF-295) was 14.8 µM (inactive), the GI50 (SK-MEL-28) was 16.4 µM (inactive) and the GI50 (MCF7) was 18.2 µM (inactive). The GI50 (NCI-H522) was 13.9 µM (inactive), the GI50 (SK-MEL-2) was 14.2 µM (inactive) and the GI50 (UACC-257) was 17.6 µM (inactive). The GI50 (TK-10) was 34.9 µM (inactive), the GI50 (UACC-62) was 13.2 µM (inactive) and the GI50 (HT-29) was 18.5 µM (inactive). For the same molecule, the GI50 (NCI-H23) was > 100 µM (inactive), the GI50 (OVCAR-5) was > 100 µM (inactive) and the GI50 (MDA-MB-435) was 16.3 µM (inactive). For the same molecule, the GI50 (ACHN) was 21.1 µM (inactive), the GI50 (Malme-3M) was 16.3 µM (inactive) and the GI50 (A549) was 19.9 µM (inactive). The GI50 (BT-549) was 17.1 µM (inactive), the GI50 (SNB-75) was 17.1 µM (inactive) and the GI50 (UO-31) was 13.8 µM (inactive). The GI50 (MDA-MB-231) was 19 µM (inactive), the GI50 (PC-3) was 13.5 µM (inactive) and the GI50 (SF-268) was 14.8 µM (inactive). For the same molecule, the GI50 (NCI-H460) was 14.5 µM (inactive), the GI50 (U-251) was 16 µM (inactive) and the GI50 (SK-MEL-5) was 14.9 µM (inactive). The GI50 (HCC 2998) was 16.7 µM (inactive), the GI50 (T47D) was 15.2 µM (inactive) and the GI50 (SW-620) was 18.4 µM (inactive). The GI50 (NCI/ADR-RES) was 14.8 µM (inactive), the GI50 (Hs-578T) was 20.5 µM (inactive) and the GI50 (786-0) was 15.6 µM (inactive). The GI50 (HCT-116) was 14.4 µM (inactive), the GI50 (HCT-15) was 15.6 µM and the GI50 (CAKI-1) was 20.1 µM (inactive). For the same molecule, the GI50 (SNB-19) was 21.5 µM (inactive), the GI50 (EKVX) was 8.17 µM (inactive) and the GI50 (DU-145) was > 100 µM (inactive). For the same molecule, the GI50 (NCI-H226) was 14.9 µM (inactive), the GI50 (SK-OV-3) was 12.7 µM (inactive) and the GI50 (IGROV-1) was 10.6 µM (inactive). For the same molecule, the GI50 (LOX IMVI) was 15.9 µM (inactive), the GI50 (MOLT-4) was 21.1 µM (inactive) and the GI50 (KM12) was 22 µM (inactive). For the same molecule, the GI50 (HOP-92) was 12.2 µM (inactive), the GI50 (OVCAR-3) was 16.9 µM (inactive) and the GI50 (CCRF-CEM) was 23.6 µM (inactive). The GI50 (SR) was 18.3 µM (inactive), the GI50 (OVCAR-8) was 16.8 µM (inactive) and the GI50 (OVCAR-4) was 14.3 µM (inactive). The GI50 (K562) was 16.7 µM (inactive), the GI50 (SF-539) was 20.3 µM (inactive) and the GI50 (RXF 393) was 13.5 µM (inactive).
For `O=C(NNC(=O)c1cc2ccccc2[nH]1)c1cc2ccccc2[nH]1`, the GI50 (RPMI-8226) was > 100 µM (inactive), the GI50 (COLO 205) was > 100 µM (inactive) and the GI50 (MDA-N) was > 100 µM (inactive). The GI50 (HOP-62) was > 100 µM (inactive), the GI50 (HL-60) was 95.7 µM (inactive) and the GI50 (SN12C) was > 100 µM (inactive). The GI50 (SF-295) was > 100 µM (inactive), the GI50 (SK-MEL-28) was > 100 µM (inactive) and the GI50 (MCF7) was > 100 µM (inactive). For the same molecule, the GI50 (NCI-H522) was > 100 µM (inactive), the GI50 (SK-MEL-2) was > 100 µM (inactive) and the GI50 (UACC-257) was > 100 µM (inactive). For the same molecule, the GI50 (TK-10) was > 100 µM (inactive), the GI50 (UACC-62) was > 100 µM (inactive) and the GI50 (A498) was > 100 µM (inactive). The GI50 (HT-29) was > 100 µM (inactive), the GI50 (OVCAR-5) was > 100 µM (inactive) and the GI50 (MDA-MB-435) was > 100 µM (inactive). The GI50 (Malme-3M) was > 100 µM (inactive), the GI50 (A549) was > 100 µM (inactive) and the GI50 (BT-549) was > 100 µM (inactive). The GI50 (SNB-75) was > 100 µM (inactive), the GI50 (UO-31) was > 100 µM (inactive) and the GI50 (MDA-MB-231) was > 100 µM (inactive). For the same molecule, the GI50 (PC-3) was > 100 µM (inactive), the GI50 (SF-268) was > 100 µM (inactive) and the GI50 (NCI-H460) was > 100 µM (inactive). For the same molecule, the GI50 (U-251) was > 100 µM (inactive), the GI50 (SK-MEL-5) was > 100 µM (inactive) and the GI50 (T47D) was > 100 µM (inactive). For the same molecule, the GI50 (SW-620) was > 100 µM (inactive), the GI50 (NCI/ADR-RES) was > 100 µM (inactive) and the GI50 (Hs-578T) was > 100 µM (inactive). For the same molecule, the GI50 (786-0) was > 100 µM (inactive), the GI50 (HCT-116) was > 100 µM (inactive) and the GI50 (HCT-15) was > 100 µM. The GI50 (CAKI-1) was > 100 µM (inactive), the GI50 (SNB-19) was > 100 µM (inactive) and the GI50 (EKVX) was > 100 µM (inactive). The GI50 (DU-145) was > 100 µM (inactive), the GI50 (NCI-H226) was > 100 µM (inactive) and the GI50 (SK-OV-3) was > 100 µM (inactive). The GI50 (IGROV-1) was > 100 µM (inactive), the GI50 (LOX IMVI) was > 100 µM (inactive) and the GI50 (MOLT-4) was > 100 µM (inactive). For the same molecule, the GI50 (M14) was > 100 µM (inactive), the GI50 (KM12) was > 100 µM (inactive) and the GI50 (OVCAR-3) was > 100 µM (inactive). For the same molecule, the GI50 (CCRF-CEM) was > 100 µM (inactive), the GI50 (SR) was 66.5 µM (inactive) and the GI50 (OVCAR-8) was > 100 µM (inactive). For the same molecule, the GI50 (OVCAR-4) was > 100 µM (inactive), the GI50 (K562) was 80 µM (inactive) and the GI50 (SF-539) was > 100 µM (inactive). The GI50 (RXF 393) was > 100 µM (inactive).
